Reference: US20240226123A9, “USE OF CANNABIDIVARIN IN THE TREATMENT OF SEIZURES ASSOCIATED WITH CANINE EPILEPSY” (GW Research Limited, priority 2021, published 2024)

Experiments:
[1] = tested on: spike-and-wave discharges induced by gamma-butyrolactone (GBL); experiment: GBL induced absence seizure model, quantified EEG (spectral power, cortex); format: in vivo, beagle dogs
Procedure: The experiment was carried out on nine male non-naïve beagle dogs, weighing 9-15 kg. All animals were housed in a box or in a kennel under natural lighting with restricted access to food (approx. 300 g/animal/day) and unlimited access to water.
Dogs were implanted with an Emka Technologies telemetric device. Following an incision in the lateral neck region, the telemetric device was introduced into a pouch under the skin. The positive and negative biopotential electrodes were coiled into a loop and tunnelled subcutaneously to protrude into the opened scalp incision. The skin incisions then were closed.
Following a sagittal incision of the scalp, the top of the skull was prepared for implantation. The incision was performed between bregma and lambda sutures in order to place electrodes over the parietal cortex. Three small holes were drilled into the skull, on the right hemisphere. The tips of the electrodes were then pushed through the holes through the skull onto the dura mater. The electrodes were connected to small plugs, placed into a connector and the whole assembly was secured on skull with dental cement. The skin incisions then were closed using aseptic chirurgical thread.
Approximately 2 weeks later, the dogs were placed in a sling for the experiment.
For EEG recording, a telemetry receiver was located nearby the animal to record EEG.
All generated data was acquired and analysed using the EMKA Technologies software. The quality of the EEG signals was checked before launching EEG recording.
Before the experiment, EEG signals were recorded during a few minutes in baseline conditions to check the quality of the signals.
The baseline EEG recording was done for each dog, one day before the test session and lasted 40 minutes. Baseline and test sessions were done at the same time of the day for each dog.
EEG signals were recorded during 40 minutes to evaluate spike-and-wave discharges. The latency to observe spike-and-wave discharges was determined off-line on EEG signals.
The differential outputs between the 2 electrodes at each implantation site were digitized on-line at a sampling rate of 500 Hz/channel and the data stored in raw data files.
EEG was quantitatively analysed by spectral analysis using a Fast Fourier Transform algorithm. Spectra were calculated from epochs of 4.1-second duration. The mean total spectral power between 1.5 and 64 Hz and the power in 6 sub-frequency bands per brain structure recorded (1.5-4 (delta), 5-8 (theta), 8.5-12.5 (alpha), 13-35 (beta), 36-64 (gamma) and 3-6 Hz) was calculated on four 10-minute periods (from 0 to 10, 10 to 20, 20 to 30 and 30 to 40 minutes during baseline and test sessions).
Before being submitted to further analysis, all spectra containing recording artefacts found on visual inspection of the EEG traces were eliminated. Then the averages of 10-minute intervals of the verified individual spectra were saved into data files which then were transferred into Excel calculation sheets.

[2] = Adverse effects observed in dogs of the GBL model studies
[3] = tested on: pilocarpine-induced seizures; details: rodent seizure models; cited from earlier work
[4] = tested on: postnatal day 10 and 20 rats; details: cited from earlier work
focal seizures in humans = details: Phase II, placebo group similar; cited from earlier work
[5] = CBDV 100 mg/kg p.o. 4 hours before GBL, across all four time periods

SMILES | power of high frequency bands (beta and gamma) ([1]; Diazepam 2 mg/kg p.o., across all four time periods) | adverse effects observed ([2]; diazepam 4 mg/kg, three dogs, during the test, after GBL administration) | adverse effects observed ([2]; diazepam 6 mg/kg, two dogs, GBL could not be administered) | power of high frequency bands (beta and gamma) [1, 5] | spectral power of lower frequency bands (delta, theta and alpha) [1, 5] | spectral power on delta frequency bands ([1]; CBDV 100 mg/kg p.o. 4 hours before GBL, time-interval 30-40 minutes, vs vehicle controls, p<0.05) | spectral power on 3-6 Hz frequency band ([1]; CBDV 100 mg/kg p.o., following GBL administration, vs vehicle control) | effect in pilocarpine-induced seizures [3] | anticonvulsant action [4] | reductions in focal seizures (focal seizures in humans)
CN1C(=O)CN=C(c2ccccc2)c2cc(Cl)ccc21 [Diazepam] | increased | Motor incoordination and psychotic effects (stereotypies, involuntary movements, barks) | the symptoms were stronger |  |  |  |  |  |  | 
C=C(C)[C@@H]1CCC(C)=C[C@H]1c1c(O)cc(CCC)cc1O [CBDV, cannabidivarin] |  |  |  | increased | decreased | significantly decreased | lowered | not found to have any effect | age and model-specific profile of anticonvulsant action | approximately 40%
